Read-outs that look alike come from different tables or passages of the source.

This assay concerns the target T1, LmjIPCS (inositol phosphorylceramide synthase from L. major) (Leishmania major, UniProt E9AFX2).
T1 sequence (E9AFX2 1-338): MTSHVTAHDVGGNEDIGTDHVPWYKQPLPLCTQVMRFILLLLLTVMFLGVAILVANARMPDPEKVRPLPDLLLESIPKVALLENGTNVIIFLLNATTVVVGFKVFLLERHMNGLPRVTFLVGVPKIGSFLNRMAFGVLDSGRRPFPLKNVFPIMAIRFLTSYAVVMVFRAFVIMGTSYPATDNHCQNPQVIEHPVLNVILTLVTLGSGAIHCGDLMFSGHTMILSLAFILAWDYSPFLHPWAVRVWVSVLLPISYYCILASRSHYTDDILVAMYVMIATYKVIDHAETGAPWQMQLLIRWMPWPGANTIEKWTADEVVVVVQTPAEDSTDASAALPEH
Put plainly: biochemical. Further details: inhibition: dose or concentration left out as unconfirmed. The note with it: for inhibition at 20000 µM: read-out: 20mM inhibition LmjIPCS; for inhibition: read-out: inhibition LmjIPCS. It is filed as biochemical.

Where [1] appears, read: NINDS set screen, single concentration printed as 20mM.
The mark [2] stands for this setting: screening of NINDS set, sheet Screen 1.

A word on the inhibition: it is the relative decrease from the control value, in per cent. Turning to `Cn1nnnc1SCC1=C(C(=O)O)N2C(=O)[C@@H](NC(=O)[C@H](O)c3ccccc3)[C@H]2SC1` [CEFAMANDOLE], the inhibition at 20000 µM was 10%.
For the compound `NC(Cc1cc(I)c(Oc2cc(I)c(O)c(I)c2)c(I)c1)C(=O)O` (centres unmarked) [THYROXINE], the inhibition at 20000 µM was determined as 12%.
Same read-out and setting: under `C#CC1(O)CC[C@H]2[C@@H]3CCC4=CC(=O)CC[C@@H]4[C@H]3CC[C@@]21CC` (mixture of isomers) [NORGESTREL] stands 17%.
For the compound `Nc1ccc(C(=O)O)c(O)c1` [AMINOSALICYLATE SODIUM], the “20mM inhibition LmjIPCS” value amounted to 43%.
`CC(=O)OC/C=C(C)/C=C/C=C(C)/C=C/C1=C(C)CCCC1(C)C` [RETINYL ACETATE]: the inhibition at 20000 µM came to 9%.
Still for that read-out and setting: the result for `COc1ccc2c(c1OC)C(=O)OC2[C@H]1c2cc3c(cc2CCN1C)OCO3` (stereo in doubt) [1R,9S-HYDRASTINE] reads 10%.
Consider `CN(C)CCC(c1ccccc1)c1ccccn1` (centres unmarked) [PHENIRAMINE], for which the inhibition (NINDS set screen) is -1%.
For `COc1cc([C@@H]2c3cc4c(cc3[C@H](O)[C@H]3COC(=O)[C@H]23)OCO4)cc(OC)c1OC` [PODOFILOX], the inhibition at 20000 µM is 21%.
Turning to `Cc1oncc1C(=O)Nc1ccc(C(F)(F)F)cc1` [LEFUNOMIDE], the “20mM inhibition LmjIPCS” value came to 10%.
On to `O=C1NC(=O)C(c2ccccc2)(c2ccccc2)N1` [PHENYTOIN], for which the inhibition stood at 14%.
In the case of `CC(=O)N(O)CCCCCNC(=O)CCC(=O)N(O)CCCCCNC(=O)CCC(=O)N(O)CCCCCN` [DEFEROXAMINe], the inhibition was -4.52%.
On to `Cc1cc(C2CCCCC2)n(O)c(=O)c1` [CICLOPIROX OLAMINE], for which the “20mM inhibition LmjIPCS” value under setting [1] was 66%.
`C1CCC(C(CC2CCCCN2)C2CCCCC2)CC1` (centres unmarked) [PERHEXILINE]: the inhibition was 12%.
For the compound `c1ccc(CN(CC2=NCCN2)c2ccccc2)cc1` [ANTAZOLINE], the “20mM inhibition LmjIPCS” value came out at 61%.
In the case of `CCCC(=O)Nc1ncnc2c1ncn2[C@@H]1O[C@@H]2COP(=O)(O)O[C@H]2[C@H]1OC(=O)CCC` [BUCLADESINE], the inhibition at 20000 µM is -1.88%.
With `COc1cc(NS(=O)(=O)c2ccc(N)cc2)nc(OC)n1` [SULFADIMETHOXINE], the inhibition was 15%.
Take `Oc1c(Cl)cc(Cl)cc1Sc1cc(Cl)cc(Cl)c1O` [BITHIONOL]: the “20mM inhibition LmjIPCS” value turned out to be 41%.
`CC(=O)OCC(=O)[C@@]1(O)CC[C@H]2[C@@H]3CCC4=CC(=O)CC[C@]4(C)[C@H]3C(=O)C[C@@]21C` [CORTISONE ACETATE]: the “20mM inhibition LmjIPCS” value turned out to be 62%.
Same read-out and setting: the result for `CCC(=O)O[C@]1(C(=O)CCl)[C@@H](C)C[C@H]2[C@@H]3CCC4=CC(=O)C=C[C@]4(C)[C@@]3(F)[C@@H](O)C[C@@]21C` [CLOBETASOL PROPRIONATE] reads 17%.
Consider `CCc1cc(C(N)=S)ccn1` [ETHIONAMIDE], for which the inhibition at 20000 µM was -5.39%.
In the case of `CN(Cc1cc(Br)cc(Br)c1N)C1CCCCC1` [BROMHEXINE], under setting [1], the “20mM inhibition LmjIPCS” value was determined as 53%.
With `COc1ccccc1OCC(O)COC(N)=O` (centres unmarked) [METHOCARBAMOL], the inhibition at 20000 µM was found to be 13%.
As to `CC1(C)[C@@H](OC(=O)CCC(=O)O)CC[C@]2(C)[C@H]3C(=O)C=C4[C@@H]5C[C@@](C)(C(=O)O)CC[C@]5(C)CC[C@@]4(C)[C@]3(C)CC[C@@H]12` [CARBENOXOLONE], the inhibition worked out at 1.66%.
Consider `O=C(O)c1cccnc1C(=O)O` [QUINOLINIC ACID], for which the inhibition at 20000 µM came to 5.51%.
Regarding `CCOC(=O)OC(C)OC(=O)[C@@H]1N2C(=O)[C@@H](NC(=O)[C@H](N)c3ccccc3)[C@H]2SC1(C)C` (some centres unmarked) [BACAMPICILLIN], the “20mM inhibition LmjIPCS” value was found to be 48%.
`Nc1ccc(S(=O)(=O)Nc2ccc(Cl)nn2)cc1` [SULFACHLORPYRIDAZINE]: for the setting “NINDS set screen”, the inhibition was found to be 23%.
Take `CN1[C@@H]2CC[C@H]1C[C@@H](OC(=O)[C@H](CO)c1ccccc1)C2` [HYOSCYAMINE]: the inhibition at 20000 µM came out at 4%.
In the case of `N[C@@H](CCC(=O)N[C@@H](CSC(CC(=O)O)C(=O)O)C(=O)NCC(=O)O)C(=O)O` (stereo partly drawn) [S-(1,2-DICARBOXYETHYL)GLUTATHIONE], the inhibition (NINDS set screen) worked out at 14%.
`O=C(O)CCNC(=O)c1ccccc1` [BETAMIPRON]: the inhibition at 20000 µM was -3.5%.
Same read-out and setting: under `COc1ccccc1OCC(O)CO` (centres unmarked) [GUAIFENESIN] stands -0.357%; under `CC(C)C[C@H](CN)CC(=O)O` [PREGABALIN], 12%.
For the compound `CCN(CC)C(C)CN1c2ccccc2Sc2ccccc21` (centres unmarked) [ETHOPROPAZINE], the “20mM inhibition LmjIPCS” value is given as 63%.
As to `CC(=O)Nc1ccc(OC(=O)c2ccccc2O)cc1` [ACETAMINOSALOL], where the note is “NINDS set screen”, the inhibition was -0.337%.
With `C[C@H]1[C@H](C)CC[C@]2(C(=O)O)CC[C@]3(C)C(=CC[C@@H]4[C@@]5(C)C[C@@H](O)[C@H](O)[C@@](C)(CO)[C@@H]5[C@H](O)C[C@]43C)[C@H]12` [MADECASSIC ACID], the inhibition was 10%.
Consider `C[C@H]1O[C@@H](O[C@H]2[C@@H](O)C[C@H](O[C@H]3[C@@H](O)C[C@H](O[C@H]4CC[C@@]5(C)[C@H](CC[C@@H]6[C@@H]5C[C@@H](O)[C@]5(C)[C@@H](C7=CC(=O)OC7)CC[C@]65O)C4)O[C@@H]3C)O[C@@H]2C)C[C@H](O)[C@@H]1O` [DIGOXIN], for which the inhibition at 20000 µM was determined as 5.32%.
On to `CCC1(c2ccc(N)cc2)CCC(=O)NC1=O` (centres unmarked) [AMINOGLUTETHIMIDE], for which the “20mM inhibition LmjIPCS” value is 56%.
`CN(C)CCC(c1ccc(Cl)cc1)c1ccccn1` (centres unmarked) [CHLORPHENIRAMINE]: the “20mM inhibition LmjIPCS” value is on record as 68%.
As for `O=C(O)CCCC[C@@H]1CCSS1` (racemic) [THIOCTIC ACID], the “20mM inhibition LmjIPCS” value under setting [1] is 55%.
Turning to `Cc1onc(-c2ccccc2)c1C(=O)N[C@@H]1C(=O)N2[C@@H]1SC(C)(C)[C@@H]2C(=O)O` [OXACILLIN], the inhibition at 20000 µM was 16%.
`N[C@@H]1C[C@H]1c1ccccc1` (racemic) [TRANYLCYPROMINE]: the “20mM inhibition LmjIPCS” value under setting [1] came to 49%.
Turning to `CNC(C)C(O)c1ccccc1` (centres unmarked) [RACEPHEDRINE], the “20mM inhibition LmjIPCS” value is on record as 41%.
Take `CC(COc1ccccc1)NC(C)C(O)c1ccc(O)cc1` (centres unmarked) [ISOXSUPRINE]: the inhibition at 20000 µM was found to be 32%.
For `NNCCc1ccccc1` [PHENELZINE], the inhibition at 20000 µM turned out to be 27%.
Turning to MERBROMIN, the “20mM inhibition LmjIPCS” value is -21%.
`CO/N=C(\C(=O)N[C@@H]1C(=O)N2C(C(=O)O)=C(CSc3nc(=O)c(=O)[nH]n3C)CS[C@H]12)c1csc(N)n1` [CEFTRIAXONE]: under setting [2], the inhibition stood at 5.34%.
For `CC(C)NCC(O)c1ccc(O)c(O)c1` (centres unmarked) [ISOPROTERENOL], the inhibition is 11%.
Turning to `CN1[C@@H]2C[C@@H](OC(=O)[C@H](CO)c3ccccc3)C[C@H]1[C@@H]1O[C@@H]12` [SCOPOLAMINE], the inhibition at 20000 µM was -2.65%.
Take `C[C@H](CCC(=O)[O-])[C@H]1CC[C@H]2[C@@H]3C(=O)C[C@@H]4CC(=O)CC[C@]4(C)[C@H]3CC(=O)[C@]12C.[Na+]` [SODIUM DEHYDROCHOLATE]: the “20mM inhibition LmjIPCS” value was -6.4%.
As for `CC1COc2c(N3CCN(C)CC3)c(F)cc3c(=O)c(C(=O)O)cn1c23` (centres unmarked) [OFLOXACIN], the inhibition is 5%.
Take `CCOC(N)=O`: the inhibition at 20000 µM was 11%.
For `CN1CCCC(n2nc(Cc3ccc(Cl)cc3)c3ccccc3c2=O)CC1` (centres unmarked) [AZELASTINE], the “20mM inhibition LmjIPCS” value under setting [1] was 56%.
On to `O=[N+]([O-])NC1=NCCN1Cc1ccc(Cl)nc1` [IMIDACLOPRID], for which the inhibition at 20000 µM was found to be 8%.
In the case of `CC1CCC(C(C)C)C(O)C1` (stereo not drawn) [MENTHOL(-)], the “20mM inhibition LmjIPCS” value (single concentration 20mM as printed, screening of NINDS set, sheet Screen 1) was determined as 4%.
Take `O=c1cc(-c2ccc(O)cc2)oc2cc(O)cc(O)c12` [APIGENIN]: the “20mM inhibition LmjIPCS” value stood at 59%.
On to `OCCN(CCO)c1nc(N2CCCCC2)c2nc(N(CCO)CCO)nc(N3CCCCC3)c2n1` [DIPYRIDAMOLE], for which the inhibition (NINDS set screen) was -11%.
For `CC(C)(C)NCC(O)COc1cccc2c1CC(O)C(O)C2` (centres unmarked) [NADOLOL], the inhibition under setting [2] worked out at 9%.
As to `CC(C)(C)NCC(O)c1ccccc1Cl` (centres unmarked) [TULOBUTEROL], the “20mM inhibition LmjIPCS” value was 51%.
Consider `CC(=O)Nc1ccccc1` [ACETANILIDE], for which the inhibition at 20000 µM amounted to 3.75%.
With `NCCc1ccc(O)c(O)c1` [DOPAMINE], the inhibition at 20000 µM was -1.1%.
`CC(N)C(=O)OC(C)(C)Cc1ccc(Cl)cc1` (centres unmarked) [ALAPROCLATE]: the “20mM inhibition LmjIPCS” value is 36%.
For the compound `CCCCN1CCCCC1C(=O)Nc1c(C)cccc1C` (centres unmarked) [BUPIVACAINE], under setting [2], the inhibition stood at 5.35%.
`CC[C@H]1OC(=O)[C@H](C)[C@@H](O[C@H]2C[C@@](C)(OC)[C@@H](O)[C@H](C)O2)[C@H](C)[C@@H](O[C@@H]2O[C@H](C)C[C@H](N(C)C)[C@H]2O)[C@](C)(O)C[C@@H](C)/C(=N\OCOCCOC)[C@H](C)[C@@H](O)[C@]1(C)O` [ROXITHROMYCIN]: the “20mM inhibition LmjIPCS” value under setting [1] amounted to 59%.
On to `CCC[C@@H]1C[C@@H](C(=O)N[C@@H]([C@H]2O[C@H](SC)[C@H](O)[C@@H](O)[C@H]2O)[C@@H](C)O)N(C)C1` [LINCOMYCIN], for which the inhibition at 20000 µM is 8.53%.
As for `CCOC(=O)c1ccc(N)cc1` [BENZOCAINE], the “20mM inhibition LmjIPCS” value under setting [1] worked out at 46%.
For `O=NN(CCCl)C(=O)NCCCl` [CARMUSTINE], the inhibition at 20000 µM was 10%.
Take `C[C@]12CCC(=O)C=C1C=C[C@@H]1[C@@H]2CC[C@@]2(C)[C@H]1CC[C@@]2(O)CCC(=O)O` [CANRENOIC ACID]: the inhibition worked out at 7%.
Consider `OCc1ccccc1O` [SALICYL ALCOHOL], for which the inhibition (NINDS set screen) stood at 23%.
As to `c1ccc2c(CC3=NCCN3)cccc2c1` [NAPHAZOLINE], the inhibition at 20000 µM was found to be 28%.

The values are drawn from article PMC7802075 (ACS Infectious Diseases, 2020).
